Measurements published in patent US20240208955A1 (RESEARCH TRIANGLE INSTITUTE, priority 2021, published 2024).
Where two headings read alike, the source gives them in different places.

Legend:
[1] = target: T1, human RXFP3 (Homo sapiens, UniProt Q9NSD7); experiment: RXFP3 cAMP accumulation assay (inhibition of relaxin-3 activity) in stable CHO human RXFP3 cells
T1 sequence (Q9NSD7 1-469): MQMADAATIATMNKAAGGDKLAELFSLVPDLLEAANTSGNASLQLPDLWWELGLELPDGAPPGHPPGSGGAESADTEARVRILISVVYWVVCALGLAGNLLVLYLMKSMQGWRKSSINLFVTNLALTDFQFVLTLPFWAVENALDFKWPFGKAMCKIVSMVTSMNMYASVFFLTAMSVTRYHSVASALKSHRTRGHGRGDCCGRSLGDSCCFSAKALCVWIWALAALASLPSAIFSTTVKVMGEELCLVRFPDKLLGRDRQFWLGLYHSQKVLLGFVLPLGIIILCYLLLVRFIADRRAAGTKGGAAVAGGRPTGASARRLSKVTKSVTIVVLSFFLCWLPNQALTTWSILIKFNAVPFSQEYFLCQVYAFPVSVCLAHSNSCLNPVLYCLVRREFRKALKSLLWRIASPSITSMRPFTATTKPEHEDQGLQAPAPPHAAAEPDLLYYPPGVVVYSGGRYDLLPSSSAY
Description: The assay is based on the competition between a europium chelate-labeled cAMP tracer and unlabeled cAMP produced by cells. […] CHO human RXFP3 cells were cultured in F12 media supplemented with 10% FBS, 100 units/mL penicillin, 100 μg/mL streptomycin, and 400 μg/mL geneticin. Stimulation buffer containing 1×HBSS, 5 mM HEPES (pH 7.4), 0.1% BSA stabilizer, and 0.5 mM IBMX was prepared. A concentration response curve of each test compound was prepared at 4 times the desired final concentration in 4% DMSO/stimulation buffer, and 5 μL was added to the assay plate. […] Forskolin (1 μM) was prepared at 4 times the desired concentration in stimulation buffer, and 5 μL was added to the assay plate. Cells were lifted from flasks with versene and spun at 270 g for 5 min. The cell pellet was resuspended in stimulation buffer and 5000 cells (5 μL) were added to each well. After incubating for 30 min at room temperature, Eu cAMP tracer and uLIGHT-anticAMP working solutions were added per the manufacturer's instructions.

[2] = target: T2, RXFP1 (Homo sapiens, UniProt Q9HBX9); experiment: Activity at RXFP1 (selectivity); format: cell-based; conditions: all concentrations tested up to 30 μM
T2 sequence (Q9HBX9 1-757): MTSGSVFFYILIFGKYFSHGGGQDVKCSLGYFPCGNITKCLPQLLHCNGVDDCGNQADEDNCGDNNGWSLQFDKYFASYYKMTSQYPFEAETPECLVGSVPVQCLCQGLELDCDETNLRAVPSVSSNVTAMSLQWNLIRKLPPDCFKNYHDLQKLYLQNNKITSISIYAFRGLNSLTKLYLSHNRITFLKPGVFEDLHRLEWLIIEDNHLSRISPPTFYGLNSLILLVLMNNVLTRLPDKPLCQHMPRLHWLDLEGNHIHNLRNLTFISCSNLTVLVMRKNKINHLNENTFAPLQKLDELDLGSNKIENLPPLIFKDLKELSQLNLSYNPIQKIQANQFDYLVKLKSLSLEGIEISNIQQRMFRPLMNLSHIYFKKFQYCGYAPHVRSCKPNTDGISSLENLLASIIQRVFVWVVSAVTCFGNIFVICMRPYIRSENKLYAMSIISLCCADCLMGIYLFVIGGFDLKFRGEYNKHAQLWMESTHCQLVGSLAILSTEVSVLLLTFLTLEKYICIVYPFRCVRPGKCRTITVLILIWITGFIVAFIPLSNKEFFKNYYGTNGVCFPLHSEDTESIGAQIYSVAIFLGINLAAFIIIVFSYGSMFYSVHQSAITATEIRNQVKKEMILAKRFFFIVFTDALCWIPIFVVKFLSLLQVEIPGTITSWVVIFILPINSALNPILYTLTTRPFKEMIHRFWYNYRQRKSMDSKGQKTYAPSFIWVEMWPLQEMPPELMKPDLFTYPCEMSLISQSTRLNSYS
Description: It is believed that these compounds represent the first series of small molecule RXFP3 antagonists to be described.

[3] = IC50 (functional RXFP3 antagonist), inhibition of relaxin-3 activity, RXFP3-CHO cAMP assay

| SMILES | IC50 [1] | further results |
| --- | --- | --- |
| COc1ccc(-c2noc(-c3ccc(NC(=O)C4CC(=O)N(Cc5cccnc5)C4)cc3)n2)cc1 (stereo not shown) [RLX-22, N-{4-[3-(4-Methoxyphenyl)-1,2,4-oxadiazol-5-yl]phenyl}-5-oxo-1-[(pyridin-3-yl)methyl]-pyrrolidine-3-carboxamide] | – | IC50 (nM) ([1]; inhibition of relaxin-3 (0.6 nM) activity, forskolin-stimulated cAMP accumulation, CHO human RXFP3 cells, mean ± SEM of at least three independent experiments in duplicate): Not active |
| O=C(Nc1ccc(-c2nc(-c3ccc(C(F)(F)F)cc3)no2)cc1)C1CC(=O)N(Cc2ccco2)C1 (stereo not shown) [RLX-32, 1-[(Furan-2-yl)methyl]-5-oxo-N-(4-{3-[4-(trifluoromethyl)phenyl]-1,2,4-oxadiazol-5-yl}phenyl)pyrrolidine-3-carboxamide] | 6680 ± 349 nM | – |
| O=C(Nc1ccc(-c2nc(-c3ccccc3)no2)cc1)C1CC(=O)N(Cc2ccccc2)C1 (stereo not shown) [RLX-2, 1-Benzyl-N-[4-(3-phenyl-1,2,4-oxadiazol-5-yl)phenyl]-5-oxopyrrolidine-3-carboxamide] | 7530 ± 998 nM | – |
| O=C(Nc1ccc(-c2nc(-c3ccccc3)no2)cc1)C1CC(=O)N(Cc2cccnc2)C1 (stereo not shown) [RLX-16, 5-Oxo-N-[4-(3-phenyl-1,2,4-oxadiazol-5-yl)phenyl]-1-[(pyridin-3-yl)methyl]-pyrrolidine-3-carboxamide] | 6610 ± 909 nM | – |
| Cc1ccc(-c2noc(-c3ccc(NC(=O)C4CC(=O)N(CCc5ccccc5)C4)cc3)n2)cc1 (stereo not shown) [RLX-4, N-{4-[3-(4-Methylphenyl)-1,2,4-oxadiazol-5-yl]phenyl}-5-oxo-1-(2-phenylethyl)pyrrolidine-3-carboxamide] | > 10000 nM | – |
| Cc1ccc(-c2noc(-c3ccc(NC(=O)C4CCN(Cc5ccccc5)C4)cc3)n2)cc1 (stereo not shown) [RLX-37, 1-Benyl-N-{4-[3-(4-methylphenyl)-1,2,4-oxadiazol-5-yl]phenyl}-pyrrolidine-3-carboxamide] | > 10000 nM | – |
| Cc1ccc(-c2noc(-c3ccc(NC(=O)C4CC(=O)N(Cc5cccc(C)c5)C4)cc3)n2)cc1 (stereo not shown) [RLX-8, 1-[(3-Methylphenyl)methyl]-N-{4-[3-(4-methylphenyl)-1,2,4-oxadiazol-5-yl]phenyl}-5-oxopyrrolidine-3-carboxamide] | > 10000 nM | – |

Further lines, with some results ahead:

| IC50 [1] | SMILES | further results |
| --- | --- | --- |
| 1340 ± 226 nM | O=C(Nc1ccc(-c2nc(-c3cccc(F)c3)no2)cc1)C1CC(=O)N(Cc2cccnc2)C1 (stereo not shown) [RLX-19, N-{4-[3-(3-Fluorophenyl)-1,2,4-oxadiazol-5-yl]phenyl}-5-oxo-1-(3-pyridinylmethyl) pyrrolidine-3-carboxamide] | IC50 [1, 3]: 1300 nM |
| 1910 ± 367 nM | O=C(Nc1ccc(-c2nc(-c3ccc(F)cc3)no2)cc1)C1CC(=O)N(Cc2cccnc2)C1 (stereo not shown) [RLX-20, N-{4-[3-(4-Fluorophenyl)-1,2,4-oxadiazol-5-yl]phenyl}-5-oxo-1-[(pyridin-3-yl)methyl]-pyrrolidine-3-carboxamide] | – |
| 5350 ± 1340 nM | Cc1cccc(-c2noc(-c3ccc(NC(=O)C4CC(=O)N(Cc5cccnc5)C4)cc3)n2)c1 (stereo not shown) [RLX-17, N-{4-[3-(3-Methylphenyl)-1,2,4-oxadiazol-5-yl]phenyl}-5-oxo-1-[(pyridin-3-yl)methyl]-pyrrolidine-3-carboxamide] | – |
| 2500 ± 97 nM | O=C(Nc1ccc(-c2nc(-c3ccc(C(F)(F)F)cc3)no2)cc1)C1CC(=O)N(Cc2cccnc2)C1 (stereo not shown) [RLX-21, 5-Oxo-1-[(pyridin-3-yl)methyl]-N-(4-{3-[4-(trifluoromethyl)phenyl]-1,2,4-oxadiazol-5-yl}phenyl)-pyrrolidine-3-carboxamide] | – |
| 2720 ± 384 nM | Cc1ccc(-c2noc(-c3ccc(NC(=O)C4CC(=O)N(C)C4)cc3)n2)cc1 (stereo not shown) [RLX-15, 1-Methyl-N-{4-[3-(4-methylphenyl)-1,2,4-oxadiazol-5-yl]phenyl}-5-oxopyrrolidine-3-carboxamide] | – |
| 2880 ± 321 nM | O=C(Nc1ccc(-c2nc(-c3ccc(Cl)cc3)no2)cc1)C1CC(=O)N(Cc2ccco2)C1 (stereo not shown) [RLX-33, N-{4-[3-(4-Chlorophenyl)-1,2,4-oxadiazol-5-yl]phenyl}-1-[(furan-2-yl)methyl]-5-oxopyrrolidine-3-carboxamide] | activity at RXFP1 [2]: no activity; IC50 [1, 3]: 2900 nM |
| 2350 ± 248 nM | Cc1ccc(-c2noc(-c3ccc(NC(=O)C4CC(=O)N(Cc5cccnc5)C4)cc3)n2)cc1 (stereo not shown) [RLX-10, N-{4-[3-(4-Methylphenyl)-1,2,4-oxadiazol-5-yl]phenyl}-5-oxo-1-[(pyridin-3-yl)methyl]-pyrrolidine-3-carboxamide] | – |
| 4810 ± 682 nM | Cc1ccc(-c2noc(-c3ccc(NC(=O)C4CC(=O)N(Cc5ccccn5)C4)cc3)n2)cc1 (stereo not shown) [RLX-9, N-{4-[3-(4-Methylphenyl)-1,2,4-oxadiazol-5-yl]phenyl}-5-oxo-1-[(pyridin-2-yl)methyl]-pyrrolidine-3-carboxamide] | – |
| 1250 ± 219 nM | O=C(Nc1ccc(-c2nc(-c3ccc(Cl)cc3)no2)cc1)C1CC(=O)N(Cc2cccnc2)C1 (stereo not shown) [RLX-24, N-{4-[3-(4-Chlorophenyl)-1,2,4-oxadiazol-5-yl]phenyl}-5-oxo-1-[(pyridin-3-yl)methyl]-pyrrolidine-3-carboxamide] | IC50 [1, 3]: 1200 nM |
| 2890 ± 193 nM | O=C(Nc1ccc(-c2nc(-c3ccc(Br)cc3)no2)cc1)C1CC(=O)N(Cc2cccnc2)C1 (stereo not shown) [RLX-25, N-{4-[3-(4-Bromophenyl)-1,2,4-oxadiazol-5-yl]phenyl}-5-oxo-1-[(pyridin-3-yl)methyl]-pyrrolidine-3-carboxamide] | – |
| 5590 ± 623 nM | Cc1ccc(-c2noc(-c3ccc(NC(=O)CCNCc4ccccc4)cc3)n2)cc1 [RLX-39, 3-[Benzylamino]-N-{4-[3-(4-methylphenyl)-1,2,4-oxadiazol-5-yl]phenyl}propanamide] | – |
